# Experimental data: article PMC3914891, “Pentacyclic Nitrofurans with In Vivo Efficacy and Activity against Nonreplicating Mycobacterium tuberculosis” (PLoS ONE, 2014)
# Tests used:
# Format in all cases: cell-based
# [1] = system: M. abscessus (ATCC 19977); test: MIC, non-tuberculosis mycobacteria: M. abscessus; details: Mycobacteroides abscessus, ATCC19977, 72 h; broth dilution, visual inspection, 3 days; range of at least two independent experiments; read-out: Minimum Inhibitory Concentration, M. abscessus
# [2] = system: Acinetobacter baumannii (ATCC 19606); test: MIC, spectrum of activity: Acinetobacter baumannii; details: ATCC19606
# M. avium (ATCC 25291) = test: MIC, non-tuberculosis mycobacteria: M. avium; details: Mycobacterium avium, ATCC25291, 168 h; broth dilution, visual inspection, 7 days; read-out: Minimum Inhibitory Concentration, M. avium
structure (smiles),measurement,setting,value
"O=[N+]([O-])c1ccc(C2=NOC(c3ccc(N4CCC(Oc5ccc(OC(F)(F)F)cc5)CC4)cc3)C2)o1 (stereo not drawn) [Compound 9a, 3-(5-Nitrofuran-2-yl)-5-(4-(4-(4-(trifluoromethoxy)phenoxy)piperidin-1-yl)phenyl)-4,5-dihydroisoxazole]",MIC,[1],12.5 µg/mL
same,MIC,[2],> 200 µg/mL
same,MIC,M. avium (ATCC 25291),200 µg/mL
